The values below come from patent US20140107021A1 (priority 2010, published 2014).

Experiment [1] concerns the target T1, glucagon receptor (Homo sapiens, UniProt P47871). Put plainly: cell-based. The note with it: for IC50(nM) (cΛMP, inhibit 0.2 mM Glucagon): Table L. The text has this:
(§1) HEK293 cells co-transfected with the receptor and luciferase gene linked to a cAMP responsive element were employed for the bioassay.
(§2) All EC50s and IC50s are reported in the following examples in nM, unless indicated otherwise.

The target in the next experiment is T2, GLP-1 receptor (Homo sapiens, UniProt P43220).
T2 construct: expressed in transfected cells; host or cells: HEK293
Put plainly: cAMP induction at the GLP-1 receptor (agonist activity), firefly luciferase reporter assay in HEK293 cells. The format is cell-based.
Source text: as §1, §2

Experiment [2] concerns the target T1, glucagon receptor. Briefly: cAMP induction at the glucagon receptor (agonist activity), luciferase reporter assay in HEK293 cells. The format is cell-based. Details: expressed in transfected cells; host or cells: HEK293. The following applies: Table E; read-out: cAMP Induction EC50.
Source text: as §1, §2

Read-outs that look alike come from different tables or passages of the source. Square brackets hold non-standard residues; d marks the D form. Ends that are not written are not given here. Peptide text beside a SMILES is read from it. MCA = alpha-methylhydrocinnamic acid (2-methyl-3-phenylpropanoic acid); PEG 20 kDa = PEG of about 20 kDa linked to Cys (maleimido methoxyPEG); PLA = 3-phenyllactic acid (2-hydroxy-3-phenylpropanoic acid)

T1 sequence (P47871 26-477): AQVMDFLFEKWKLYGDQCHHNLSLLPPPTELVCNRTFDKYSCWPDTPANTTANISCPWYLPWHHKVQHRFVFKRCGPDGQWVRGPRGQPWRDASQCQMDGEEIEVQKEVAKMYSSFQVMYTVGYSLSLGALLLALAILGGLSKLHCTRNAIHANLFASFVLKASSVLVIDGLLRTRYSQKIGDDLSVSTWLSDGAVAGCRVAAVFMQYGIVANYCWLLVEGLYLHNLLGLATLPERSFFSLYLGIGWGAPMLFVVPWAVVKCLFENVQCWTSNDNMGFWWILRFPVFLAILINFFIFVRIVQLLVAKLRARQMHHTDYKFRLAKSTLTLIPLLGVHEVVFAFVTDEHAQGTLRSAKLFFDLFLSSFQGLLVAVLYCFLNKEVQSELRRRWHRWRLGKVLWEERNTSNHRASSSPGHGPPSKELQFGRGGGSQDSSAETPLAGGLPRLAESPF
T2 sequence (P43220 24-463): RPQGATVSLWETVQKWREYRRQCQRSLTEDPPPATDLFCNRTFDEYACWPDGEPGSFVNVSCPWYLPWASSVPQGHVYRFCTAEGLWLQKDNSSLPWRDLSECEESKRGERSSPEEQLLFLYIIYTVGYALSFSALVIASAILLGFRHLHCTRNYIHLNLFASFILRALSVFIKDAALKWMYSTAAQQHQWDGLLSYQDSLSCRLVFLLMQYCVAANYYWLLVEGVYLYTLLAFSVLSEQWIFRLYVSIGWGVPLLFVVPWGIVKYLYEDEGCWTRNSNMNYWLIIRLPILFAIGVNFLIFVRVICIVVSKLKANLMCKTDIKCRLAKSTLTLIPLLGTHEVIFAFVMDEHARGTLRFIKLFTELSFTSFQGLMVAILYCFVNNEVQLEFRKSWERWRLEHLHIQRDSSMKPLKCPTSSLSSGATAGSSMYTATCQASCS

In the case of `CSCC[C@H](NC(=O)[C@H](CC(C)C)NC(=O)[C@H](Cc1c[nH]c2ccccc12)NC(=O)[C@H](CCC(N)=O)NC(=O)[C@@H](NC(=O)[C@H](Cc1ccccc1)NC(=O)[C@H](CC(=O)O)NC(=O)[C@@H]1CCCCNC(=O)CC[C@H](NC(=O)[C@H](CC(=O)O)NC(=O)[C@H](CC(C)C)NC(=O)[C@H](Cc2ccc(O)cc2)NC(=O)[C@H](CCCCN)NC(=O)[C@H](CO)NC(=O)[C@H](Cc2ccc(O)cc2)NC(=O)[C@H](CCC(=O)O)NC(=O)[C@H](CO)NC(=O)[C@@H](NC(=O)[C@H](Cc2ccccc2)NC(=O)[C@@H](NC(=O)CNC(=O)[C@H](CCC(=O)O)NC(=O)[C@H](C)N)[C@@H](C)O)[C@@H](C)O)C(=O)N[C@@H](CCCNC(=N)N)C(=O)N[C@@H](CCCNC(=N)N)C(=O)N[C@@H](C)C(=O)N1)C(C)C)C(=O)N[C@@H](CC(=O)O)C(=O)N[C@H](C(N)=O)[C@@H](C)O` [[A2E3, E16K20(Lactam),D28]G(2~29)], the IC50 at glucagon receptor [1] (read-out: Glucagon IC50, Table B) stood at 63 nM.
Regarding `CSCC[C@H](NC(=O)[C@H](CC(C)C)NC(=O)[C@H](Cc1c[nH]c2ccccc12)NC(=O)[C@H](CCC(N)=O)NC(=O)[C@@H](NC(=O)[C@H](Cc1ccccc1)NC(=O)[C@H](CC(=O)O)NC(=O)[C@H](CCC(N)=O)NC(=O)[C@H](C)NC(=O)[C@H](CCCNC(=N)N)NC(=O)[C@H](CCCNC(=N)N)NC(=O)[C@@H]1CCC(=O)NCCCC[C@H](NC(=O)[C@H](CO)NC(=O)[C@H](Cc2ccc(O)cc2)NC(=O)[C@H](CC(=O)O)NC(=O)[C@H](CO)NC(=O)[C@@H](NC(=O)[C@@H](O)Cc2ccccc2)[C@@H](C)O)C(=O)N[C@@H](Cc2ccc(O)cc2)C(=O)N[C@@H](CC(C)C)C(=O)N[C@@H](CC(=O)O)C(=O)N1)C(C)C)C(=O)N[C@@H](CC(=O)O)C(=O)N[C@H](C(N)=O)[C@@H](C)O` [[PLA6, D9, K12E16(Lactam), D28]G(6-29)] (HELM PEPTIDE1{[O=C([C@@H](O)Cc1ccccc1)[*:2]].T.S.D.Y.S.K.Y.L.D.E.R.R.A.Q.D.F.V.Q.W.L.M.D.T.[am]}$PEPTIDE1,PEPTIDE1,7:R3-11:R3$$$V2.0), the IC50 at glucagon receptor [1] (Glucagon IC50 (nM), Table B) came to 63 nM.
Regarding `CSCC[C@H](NC(=O)[C@H](CC(C)C)NC(=O)[C@H](Cc1c[nH]c2ccccc12)NC(=O)[C@H](CCC(N)=O)NC(=O)[C@@H](NC(=O)[C@H](Cc1ccccc1)NC(=O)[C@H](CC(=O)O)NC(=O)[C@@H]1CCCCNC(=O)CC[C@H](NC(=O)[C@H](CC(=O)O)NC(=O)[C@H](CC(C)C)NC(=O)[C@H](Cc2ccc(O)cc2)NC(=O)[C@H](CCCCN)NC(=O)[C@H](CO)NC(=O)[C@H](Cc2ccc(O)cc2)NC(=O)[C@H](CCC(=O)O)NC(=O)[C@H](CO)NC(=O)[C@@H](NC(=O)[C@@H](O)Cc2ccccc2)[C@@H](C)O)C(=O)N[C@@H](CCCNC(=N)N)C(=O)N[C@@H](CCCNC(=N)N)C(=O)N[C@@H](C)C(=O)N1)C(C)C)C(=O)N[C@@H](CC(N)=O)C(=O)N[C@H](C(=O)NCC(=O)N1CCC[C@H]1C(=O)N[C@@H](CO)C(=O)N[C@@H](CO)C(=O)NCC(=O)N[C@@H](C)C(=O)N1CCC[C@H]1C(=O)N1CCC[C@H]1C(=O)N1CCC[C@H]1C(=O)N[C@@H](CO)C(N)=O)[C@@H](C)O` [[PLA6, E9, E16K20(Lactam)]], the EC50 at GLP-1 receptor (GLP-1 EC50 (nM), Table C) worked out at 20 nM; at GLP-1 receptor (GLP-1 ECso (nM), Table A) it was 20 nM. Moreover, the IC50 worked out at 20 nM on glucagon receptor [1] (Glu ICso (nM), Table A, Glu = glucagon) and 20 nM at glucagon receptor [1] (Glucagon IC50 (nM), Table C).
For `CSCC[C@H](NC(=O)[C@H](CC(C)C)NC(=O)[C@H](Cc1c[nH]c2ccccc12)NC(=O)[C@H](CCC(N)=O)NC(=O)[C@@H](NC(=O)[C@H](Cc1ccccc1)NC(=O)[C@H](CC(=O)O)NC(=O)[C@H](CCC(N)=O)NC(=O)[C@H](C)NC(=O)[C@H](CCCNC(=N)N)NC(=O)[C@H](CCCNC(=N)N)NC(=O)[C@H](CO)NC(=O)[C@H](CC(=O)O)NC(=O)[C@H](CC(C)C)NC(=O)[C@H](Cc1ccc(O)cc1)NC(=O)[C@H](CCCCN)NC(=O)[C@H](CO)NC(=O)[C@H](Cc1ccc(O)cc1)NC(=O)[C@H](CCC(=O)O)NC(=O)[C@H](CO)NC(=O)[C@@H](NC(=O)[C@H](Cc1ccccc1)NC(=O)[C@@H](NC(=O)[C@@H](O)Cc1ccccc1)[C@@H](C)O)[C@@H](C)O)C(C)C)C(=O)N[C@@H](CC(N)=O)C(=O)N[C@H](C(N)=O)[C@@H](C)O` [[PLA^4, E^9]Glucagon(aa4-29)-NH2] (HELM PEPTIDE1{[O=C([C@@H](O)Cc1ccccc1)[*:2]].T.F.T.S.E.Y.S.K.Y.L.D.S.R.R.A.Q.D.F.V.Q.W.L.M.N.T.[am]}$$$$V2.0), at glucagon receptor [1] (IC50(nM) (cAMP, inhibit 0.8 mM Glucagon), Table K, inhibit 0.8 mM Glucagon), the midpoint of inhibition, the IC50, lay at 84.4 ± 19.5 nM.
Turning to `CC(C)C[C@H](NC(=O)[C@H](Cc1ccc(O)cc1)NC(=O)[C@H](CCCCN)NC(=O)[C@H](CO)NC(=O)[C@H](Cc1ccc(O)cc1)NC(=O)[C@H](CCS(=O)(=O)O)NC(=O)[C@H](CO)NC(=O)[C@@H](NC(=O)[C@H](Cc1ccccc1)NC(=O)[C@@H](NC(=O)[C@H](CC(C)C)NC(=O)[C@H](CCC(N)=O)NC(=O)[C@@H](N)CO)[C@@H](C)O)[C@@H](C)O)C(=O)N[C@@H](CC(=O)O)C(=O)N[C@@H](CO)C(=O)N[C@@H](CCCNC(=N)N)C(=O)N[C@@H](CCCNC(=N)N)C(=O)N[C@@H](C)C(=O)N[C@@H](CCC(N)=O)C(=O)N[C@@H](CC(=O)O)C(=O)N[C@@H](Cc1ccccc1)C(=O)N[C@H](C(=O)N[C@@H](CCC(N)=O)C(=O)N[C@@H](Cc1ccccc1)C(=O)N[C@@H](CC(C)C)C(=O)N[C@@H](CC(C)C)C(=O)N[C@@H](CC(N)=O)C(=O)N[C@H](C(N)=O)[C@@H](C)O)C(C)C` [[desHis^1, Leu^4, hCys^9(SO3—), Phe^25, Leu^27]Glucagon-NH2] (HELM PEPTIDE1{S.Q.L.T.F.T.S.[O=C([C@H](CCS(=O)(=O)O)N[*:1])[*:2]].Y.S.K.Y.L.D.S.R.R.A.Q.D.F.V.Q.F.L.L.N.T.[am]}$$$$V2.0), the EC50 on glucagon receptor [2] is 1610 ± 1130 nM.
For the compound `CSCC[C@H](NC(=O)[C@H](CC(C)C)NC(=O)[C@H](Cc1c[nH]c2ccccc12)NC(=O)[C@H](CCC(N)=O)NC(=O)[C@@H](NC(=O)[C@H](Cc1ccccc1)NC(=O)[C@H](CC(=O)O)NC(=O)[C@H](CCC(N)=O)NC(=O)[C@H](C)NC(=O)[C@H](CCCNC(=N)N)NC(=O)[C@H](CCCNC(=N)N)NC(=O)[C@H](CO)NC(=O)[C@H](CC(=O)O)NC(=O)[C@H](CC(C)C)NC(=O)[C@H](Cc1ccc(O)cc1)NC(=O)[C@H](CCCCN)NC(=O)[C@H](CO)NC(=O)[C@H](Cc1ccc(O)cc1)NC(=O)[C@H](CCS(=O)(=O)O)NC(=O)[C@H](CO)NC(=O)[C@@H](NC(=O)[C@H](Cc1ccccc1)NC(=O)[C@@H](NC(=O)CN)[C@@H](C)O)[C@@H](C)O)C(C)C)C(=O)N[C@@H](CC(N)=O)C(=O)N[C@H](C(N)=O)[C@@H](C)O` [[hCys^9(SO3H)]Glucagon(aa4-29)-NH2] (HELM PEPTIDE1{G.T.F.T.S.[O=C([C@H](CCS(=O)(=O)O)N[*:1])[*:2]].Y.S.K.Y.L.D.S.R.R.A.Q.D.F.V.Q.W.L.M.N.T.[am]}$$$$V2.0; N-terminus assumed), on glucagon receptor [1], the Kb is 60.3 nM.
The same measure, in the same setting: with `CSCC[C@H](NC(=O)[C@H](CC(C)C)NC(=O)[C@H](Cc1c[nH]c2ccccc12)NC(=O)[C@H](CCC(N)=O)NC(=O)[C@@H](NC(=O)[C@H](Cc1ccccc1)NC(=O)[C@H](CC(=O)O)NC(=O)[C@H](CCC(N)=O)NC(=O)[C@H](C)NC(=O)[C@H](CCCNC(=N)N)NC(=O)[C@H](CCCNC(=N)N)NC(=O)[C@H](CO)NC(=O)[C@H](CC(=O)O)NC(=O)[C@H](CC(C)C)NC(=O)[C@H](Cc1ccc(O)cc1)NC(=O)[C@H](CCCCN)NC(=O)[C@H](CO)NC(=O)[C@H](Cc1ccc(O)cc1)NC(=O)[C@H](CCS(=O)(=O)O)NC(=O)[C@H](CO)NC(=O)[C@@H](NC(=O)[C@H](Cc1ccccc1)NC(=O)[C@@H](N)[C@@H](C)O)[C@@H](C)O)C(C)C)C(=O)N[C@@H](CC(N)=O)C(=O)N[C@H](C(N)=O)[C@@H](C)O` [[hCys^9(SO3H)]Glucagon(aa5-29)-NH2] (HELM PEPTIDE1{T.F.T.S.[O=C([C@H](CCS(=O)(=O)O)N[*:1])[*:2]].Y.S.K.Y.L.D.S.R.R.A.Q.D.F.V.Q.W.L.M.N.T.[am]}$$$$V2.0; N-terminus assumed) the figure was 170 nM.
Regarding “FTSDYSKYLDSRRAQDFVQWLMNT-NH2 [Glucagon(aa6-29)-NH2]”, at glucagon receptor [1], the Kb was 115 nM, the “cAMP (I/A)50” value is on record as 1730 and the “cAMP pA2” value amounted to 6.94 ± 0.63.
“GTFTSEYSKYLDSRRAQDFVQWLMNT-NH2 [[Glu^9]Glucagon(aa4-29)-NH2]” gave a Kb on glucagon receptor [1] of 89.1 nM.
Take “H-FTSKYSKYLDSRRAQDFVQWLMNT-NH2 [[Lys^9]Glucagon(aa6-29)-NH2]”: on glucagon receptor [1], the Kb was 263 nM, the “cAMP (I/A)50” value was 1990 and the “cAMP pA2” value is 6.58 ± 0.60.
For the compound “HSQGTFTSDYARYLDARRAREFIKWLVRGRG [ANK2 (Bayer peptide), reference compound]”, the “Glucagon IC50 (nM)” value at glucagon receptor [1] (Table B) is given as “agonist”.
For the compound “[MCA6, E9, C24(20 kDaPEG)]Glucagon(aa6-29)-NII2 ([MCA]TSEYSKYLDSRRAQDFVC(PEG 20 kDa)WLMNT-NH2)”, in the experiment with glucagon receptor [1], the “IC50(nM) (cΛMP, inhibit 0.2 mM Glucagon)” value was “no antagonism”.
For the compound “[PLA6, C8(1.2 kDaPEG), E9]Glucagon(aa6-29)-NH2 ({PLA}-TC(PEG 1.2 kDa)EYSKYLDSRRAQDFVQWLMNT-NH2)”, the “IC50(nM) (cΛMP, inhibit 0.2 mM Glucagon)” value with glucagon receptor [1] was “no antagonism”.
